Here are results for one compound from patent US20130150399A1, “INHIBITORS OF THE UNFOLDED PROTEIN RESPONSE AND METHODS FOR THEIR USE” (The Board of Trustees of the Leland Stanford Junior …, priority 2006, published 2013).

One assay deals with T1, His6-IRE1α-cyto (Homo sapiens, UniProt O75460).
T1 construct: purified the full cytosolic portion of IRE1α (His6-IRE1α-cyto) containing both kinase and endonuclease domains; His6; made in house
The assay is described as follows: IRE1α endonuclease (in vitro ribonuclease) assay. The conditions noted are these: 2.5 μM. In kind it is biochemical. The protocol: The in vitro ribonuclease assays were carried out using purified IRE1α-cyto essentially as described. Gonzalez and Walter, Methods Mol Biol 160: 25-36 (2001); Gonzalez et al., Embo J 18: 3119-3132 (1999). For each reaction, 5 μg purified IRE1α-cyto was incubated with 300 ng of fluorescein-labeled RNA stem-loop substrate at 37° C. in a total volume of 300 μl. Aliquots (50 μl) were withdrawn at the indicated times and mixed with an equal volume of stop solution. Id. Reactions were analyzed by SDS-PAGE using 10-20% acrylamide gradient gels. The sequence for the hXBP-1 3′ RNA stem-loop substrate is as follows: • 5′[…] 3′ (SEQ ID NO: 8). […]
HT1080 cells were exposed to DMSO vehicle (lane 1), irestatin 9389 (2.5 μM; lane 2) for 16 hours or Tm (5 μg/ml; lane 3) for 8 hours. Following treatments, cells were harvested, lysed, and analyzed by immunoblotting using anti-Grp78 antibody (top) or anti-actin (bottom) as a loading control. […] Cell lysates were analyzed by Western immunoblotting using anti-IRE1α (bottom) or anti-phospho-IRE1α antibodies (top). […] Lysates were analyzed by Western blot using antisera specific for phospho-JNK1 (top) or total JNK1 (bottom). […] F. Quantification of RNA cleavage kinetics. […] Samples were analyzed as in (E).
Next we determined whether irestatin 9389 inhibited the endonuclease function of IRE1α. […]

The next assay relates to HT1080 fibrosarcoma. The assay is described as follows: Cell proliferation assay, HT1080. It is filed as cell-based, human. To be noted: normal conditions; same concentrations. The method, then: A. Effect of irestatin 9389 on PERK and ATF6 pathways. HT1080 cells were treated with vehicle alone (lanes 1-4) or 2.5 μM irestatin 9389 (lanes 5-8) and cultured under aerobic conditions for 18 hours (N) or shifted to hypoxia for the indicated times. Protein lysates were analyzed by Western blot analysis using antisera specific for ATF6 (top), CHOP/GADD153 (middle) or actin (bottom). Arrow indicates the cleaved, transcriptionally active form of ATF6. B. Cleavage of caspase-3 in irestatin-treated cells under hypoxia. HT1080 cells were cultured in normoxia (N) or under hypoxia for 36 hours (H 36) in absence or presence of irestatin 9389 (2.5 μM). Arrows indicate proteolytically cleaved caspase-3. C. Colony formation assay. HT1080 cells were treated as in B under normoxia (N) or hypoxia for 48 hours (H 48). Cells were harvested, counted, and allowed to grow under normal culture conditions for 11-12 days. Colonies were visualized with crystal violet staining. D. Quantification of clonogenic survival assay. Values represent the mean+/−SEM from at least 4 independent experiments. E. TUNEL staining of cells treated as in C. F. Quantification of TUNEL-positive cells. Values represent the mean+/− SEM from at least 3 experiments. […] Cells were harvested at the indicated times and counted by hemocytometer. Values represent the mean calculated from triplicate experiments+/−SEM.

T1 sequence (O75460 465-977 limits assumed): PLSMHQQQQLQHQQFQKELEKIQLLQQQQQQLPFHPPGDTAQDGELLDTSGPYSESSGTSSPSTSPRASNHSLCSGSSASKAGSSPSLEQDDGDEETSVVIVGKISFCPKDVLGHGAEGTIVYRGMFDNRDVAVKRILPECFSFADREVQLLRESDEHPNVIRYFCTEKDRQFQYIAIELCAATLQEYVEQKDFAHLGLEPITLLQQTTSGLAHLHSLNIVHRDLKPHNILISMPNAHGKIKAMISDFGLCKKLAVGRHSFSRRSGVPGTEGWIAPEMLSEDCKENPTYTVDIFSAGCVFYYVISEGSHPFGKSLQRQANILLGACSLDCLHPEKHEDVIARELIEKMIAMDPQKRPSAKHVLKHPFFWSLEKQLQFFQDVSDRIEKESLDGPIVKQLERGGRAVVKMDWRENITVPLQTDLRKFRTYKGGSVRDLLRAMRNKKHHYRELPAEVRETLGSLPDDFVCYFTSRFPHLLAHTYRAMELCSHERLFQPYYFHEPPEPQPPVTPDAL

As for `Cc1csc(NC(=O)CSc2nc3c(c(C(F)(F)F)c2C#N)CCC3)n1` [Compound 9389], the “cleavage of XBP-1 target RNA by IRE1α endonuclease” value at His6-IRE1α-cyto is reported as “strongly inhibited cleavage”. In addition, the “growth rate of HT1080 cells” value in the assay on HT1080 fibrosarcoma was “negligible effect on the growth rate”.
